Legend:
Male CD rats = experiment: Rat MEST model (seizure threshold, CC50); assay type: in vivo
Description: This work was conducted in compliance with the Home Office Guidance on the operation of the Animals (Scientific Procedures) Act 1986 and GlaxoSmithKline ethical standards. Male CD rats (100-145 g) were supplied by Charles River, UK. Animals were group housed (6 animal per cage) with free access to food (Standard rodent chow; Harlan, UK) and water under a 12 h light/dark cycle (lights on at 0700 h). A period of at least one week between arrival at GSK and the study was allowed in all cases.
Animals were administered a test compound at the appropriate dose, route and pre-treatment time and returned to their home cage. Testing occurred in a separate room from that used for housing. Testing involved determining the threshold for tonic hindlimb extensor seizures using a Hugo Sachs Electronik stimulator which delivers a constant current of 0.3 second duration, 50 Hz, sinewave form, fully adjustable between 1 and 300 mA. Stimuli were delivered via corneal electrodes (Stean T O, Atkins A R, Heidbreder C A, Quinn L P, Trail B K, Upton N. (2005) Br J. Pharmacol. 144(5):628-35). Seizure threshold was determined using the ‘up and down’ method of Kimball et al. (1957)(Kimball A W, Burnett W T Jr, Doherty D G. (1957) Radiat Res. 7(1):1-12). The first animal tested in each group was stimulated with a current that might be expected to be close to the threshold for induction of a seizure. If a tonic seizure was not induced, then next animal in the group received a stimulus 5 mA higher. If a tonic seizure was induced, then the next animal received a stimulus 5 mA lower. This is repeated for all animals within the control (vehicle) group. In the case of groups treated with a sodium channel blocker steps of 10 to 30 mA were used.
All doses were calculated as base. ENa9 and ENa13 were dosed via the subcutaneous (s.c.) route at 1 ml/kg in a 2% v/v DMSO/saline vehicle 30 minutes prior to test. ENa7 and ENa14 were dosed orally (p.o.) in a 1% w/v methylcellulose/water vehicle at 2 ml/kg, 60 minutes before test. Compound ENK6 was dosed with via the intraperitoneal (i.p.) route 60 minutes before the test or via the s.c. route 15 minutes before test. In both cases ENK6 was dissolved in saline.
Induction of seizure is measured as an all-or-nothing effect scored as either present (+) or absent (0) for each animal. The data for each treatment group were recorded as the number of +'s and 0's at each current level employed and this information was then used to calculate the CC50 value (current required for 50% of animals to show seizure behaviour)+standard error of the mean according to the method of Kimball et al. (1957). Drug effects were calculated as the % change in CC50. Significant differences between drug-treated animals and appropriate vehicle treated groups were assessed according to the methods of Litchfield and Wilcoxon (1949). The statistical significance of differences between sodium channel blocker alone or in combination with ENK6 was assessed using a Student's t test.

rats = experiment: FCA (Freunds Complete Adjuvant) model of inflammatory hypersensitivity to pain (weight bearing); assay type: in vivo, rat
Description: • Naïve weight bearing readings were taken. The hypersensitivity to pain was measured using the Rat incapacitance tester (Linton instruments). This instrument is serviced once a year and should be regularly calibrated • All rats then received an intraplantar injection of 100 ul of FCA (Freund's complete adjuvant) into the left hind paw. The FCA was sonicated for 15 minutes prior to use. • Approximately 23 hrs after administration of the FCA, pre-dose weight bearing readings were taken. All animals were then ranked and randomised for dosing according to their FCA window (predose difference in grams−naïve difference in grams). […] Celebrex 10 mg/kg p.o. (positive control) as appropriate according to ranking and randomisation. • Animals were assessed in the weight bearing apparatus 1 hour post dose. • The study was blind and randomised by FCA window using the Latin square method. • % reversals were calculated by using the naïve, pre-dose and post dose values as follows: % Reversal=[(Pre-dose−Post-dose)/(Pre-dose−Naïve)]×100 • Graphs and ED50 were calculated where appropriate using Prism4. • Statistical analysis was carried out using ANOVA followed by calculating the least square means using the statistical package Statistica 6.1 • From the dose response curves the ED20 was determined for the combination study • Naïve weight bearing readings were taken. The hypersensitivity to pain was measured using the Rat incapacitance tester (Linton instruments). This instrument is serviced once a year and should be regularly calibrated • All rats then received an intraplantar injection of 100 ul of FCA (Freund's complete adjuvant) into the left hind paw. The FCA was sonicated for 15 minutes prior to use. • Approximately 23 hrs after administration of the FCA, pre-dose weight bearing readings were taken. All animals were then ranked and randomised for dosing according to their FCA window (predose difference in grams−naïve difference in grams). […] See table 5 for details of the groups • Animals were assessed in the weight bearing apparatus 1 hour post dose. • The study was blind and randomised by FCA window using the Latin square method. • % reversals were calculated by using the naïve, pre-dose and post dose values as follows: % Reversal=[(Pre-dose−Post-dose)/(Pre-dose−Naïve)]×100 • Statistical analysis was carried out using ANOVA followed by calculating the least square means using the statistical package Statistica 6.1 • ED50 and ED20 values and graphs were calculated using prism5 • Naïve weight bearing readings were taken. The hypersensitivity to pain was measured using the Rat incapacitance tester (Linton instruments). This instrument is serviced once a year and should be regularly calibrated • All rats then received an intraplantar injection of 100 ul of FCA (Freund's complete adjuvant) into the left hind paw. The FCA was sonicated for 15 minutes prior to use. • Approximately 23 hrs after administration of the FCA, pre-dose weight bearing readings were taken. All animals were then ranked and randomised for dosing according to their FCA window (predose difference in grams—naïve difference in grams). Rats with FCA window less than 30 g were excluded from the study. • Animals were then dosed with the following in a fixed dose ratio of 1.25:1 according to ranking and randomisation. (Table 6) […] Graphs and ED50 were calculated where appropriate using Prism5 • Statistical analysis was carried out using ANOVA followed by calculating the least square means using the statistical package Statistica 6.1

SMILES: Nc1nnc(-c2cccc(Cl)c2Cl)c(N)n1 [ENa7, 3,5-diamino-6-(2,3-dichlorophenyl)-1,2,4-triazine, reference compound]
- increase in CC50 (mA) (Male CD rats; sodium channel blocker 1 mg/kg p.o. in the presence of ENK6 10 mg/kg s.c. (first experiment)): 61%
- increase in CC50 (mA) (Male CD rats; sodium channel blocker 1 mg/kg p.o. in the presence of ENK6 30 mg/kg s.c.): 145%
- increase in CC50 (mA) (Male CD rats; sodium channel blocker 3 mg/kg p.o. in the presence of ENK6 30 mg/kg s.c. (second experiment)): 233%
- effect on seizure threshold (Male CD rats; sodium channel blocker alone, 1 mg/kg p.o., 60 minutes before the test): little or no increase in seizure threshold
- increase in seizure threshold (Male CD rats; sodium channel blocker alone, 3 mg/kg p.o., 60 minutes before the test, two independent experiments): 128-205%
- ED50 (rats; Rattus norvegicus, po, compound alone, 0.1-3.0 mg/kg p.o. as printed, 1 hour post dose, range in brackets as printed, read-out: ED50, reversal of the FCA induced hypersensitivity): 0.35 mg/kg
- reversal of the FCA induced hypersensitivity (rats; compound alone, 0.1-3.0 mg/kg, 1 hour post dose): dose related reversal
- effect on the FCA induced hypersensitivity (rats; each compound alone at its ED20 dose (ENa7 0.1 mg/kg p.o.; ENK6 0.08 mg/kg s.c.)): no significant effect

Reference: US20100105688A1, “PHARMACEUTICAL COMPOSITIONS COMPRISING 3,5-DIAMINO-6-(2,3-DICHLOPHENYL)-1,2,4-TRIAZINE OR R(-)-2,4-DIAMINO-5-(2,3-DICHLOROPHENYL)-6-FLUOROMETHYL PYRIMIDINE AND AN NK1” (GLAXO GROUP LIMITED, priority 2007, published 2010)
